Experimental data reported in article PMC4266920, “Exploring the correlation between the sequence composition of the nucleotide binding G5 loop of the FeoB GTPase domain (NFeoB) and intrinsic rate of GDP release” (Bioscience Reports, 2014).

What was measured:
Type in all cases: binding
[1] = target: T1, EcNFeoB (GTPase domain of Escherichia coli FeoB) (Escherichia coli, UniProt P33650, S150A); experiment: isothermal titration calorimetry, one-site model; settings: read-out: Kd^** (μM) GDP
T1 construct: soluble N-terminal GTPase domain, residues 1-270; GST fusion (pGEX-4T-1) in E. coli BL21(DE3), GST removed by thrombin, size exclusion; an alternate S150A-TEV construct (TEV-cleaved) was also made
T1 sequence (P33650 1-270 S150A): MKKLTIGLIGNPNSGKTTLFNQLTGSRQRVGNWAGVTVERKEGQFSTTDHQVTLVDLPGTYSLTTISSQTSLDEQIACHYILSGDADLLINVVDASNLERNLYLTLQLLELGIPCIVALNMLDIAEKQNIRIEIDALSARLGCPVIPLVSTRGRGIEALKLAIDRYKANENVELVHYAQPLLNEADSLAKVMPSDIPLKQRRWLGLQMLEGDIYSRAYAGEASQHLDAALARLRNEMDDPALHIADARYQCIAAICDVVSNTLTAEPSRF
Description: (§1) isothermal titration calorimetry, one-site model on EcNFeoB (GTPase domain of Escherichia coli FeoB)

[2] = target: T2, EcNFeoB (GTPase domain of Escherichia coli FeoB) (Escherichia coli, UniProt P33650, T151A); experiment: isothermal titration calorimetry, one-site model; settings: read-out: Kd^** (μM) GDP
T2 construct: soluble N-terminal GTPase domain, residues 1-270; GST fusion (pGEX-4T-1) in E. coli BL21(DE3), GST removed by thrombin, size exclusion; an alternate S150A-TEV construct (TEV-cleaved) was also made
T2 sequence (P33650 1-270 T151A): T1 sequence (P33650 1-270 S150A)
Description: as §1

[3] = target: T3, EcNFeoB (GTPase domain of Escherichia coli FeoB) (Escherichia coli, UniProt P33650, G153A); experiment: isothermal titration calorimetry, one-site model; settings: read-out: Kd^** (μM) GDP
T3 construct: soluble N-terminal GTPase domain, residues 1-270; GST fusion (pGEX-4T-1) in E. coli BL21(DE3), GST removed by thrombin, size exclusion; an alternate S150A-TEV construct (TEV-cleaved) was also made
T3 sequence (P33650 1-270 G153A): T1 sequence (P33650 1-270 S150A)
Description: as §1

[4] = target: T4, EcNFeoB (GTPase domain of Escherichia coli FeoB) (Escherichia coli, UniProt P33650, R154A); experiment: isothermal titration calorimetry, one-site model; settings: read-out: Kd^** (μM) GDP
T4 construct: soluble N-terminal GTPase domain, residues 1-270; GST fusion (pGEX-4T-1) in E. coli BL21(DE3), GST removed by thrombin, size exclusion; an alternate S150A-TEV construct (TEV-cleaved) was also made
T4 sequence (P33650 1-270 R154A): T1 sequence (P33650 1-270 S150A)
Description: as §1

[5] = target: T5, EcNFeoB (GTPase domain of Escherichia coli FeoB) (Escherichia coli, UniProt P33650, R152A); experiment: isothermal titration calorimetry, one-site model; settings: read-out: Kd^** (μM) GDP
T5 construct: soluble N-terminal GTPase domain, residues 1-270; GST fusion (pGEX-4T-1) in E. coli BL21(DE3), GST removed by thrombin, size exclusion; an alternate S150A-TEV construct (TEV-cleaved) was also made
T5 sequence (P33650 1-270 R152A): T1 sequence (P33650 1-270 S150A)
Description: as §1

[6] = target: T2, EcNFeoB (GTPase domain of Escherichia coli FeoB); experiment: stopped-flow fluorescence, koff/kon from kobs versus protein concentration; settings: 20 mM Tris pH 8.0, 100 mM NaCl, 100 mM MgCl2, 20 °C; labelled compound (mant-GMPPNP; table heading prints GMPPNP)
Description: (§2) stopped-flow fluorescence, koff/kon from kobs versus protein concentration on EcNFeoB (GTPase domain of Escherichia coli FeoB)

[7] = target: T3, EcNFeoB (GTPase domain of Escherichia coli FeoB); experiment: as above; settings: 20 mM Tris pH 8.0, 100 mM NaCl, 100 mM MgCl2, 20 °C; labelled compound (mant-GMPPNP; table heading prints GMPPNP)
Description: as §2

[8] = target: T4, EcNFeoB (GTPase domain of Escherichia coli FeoB); experiment: as above; settings: 20 mM Tris pH 8.0, 100 mM NaCl, 100 mM MgCl2, 20 °C; labelled compound (mant-GMPPNP; table heading prints GMPPNP)
Description: as §2

[9] = target: T5, EcNFeoB (GTPase domain of Escherichia coli FeoB); experiment: as above; settings: 20 mM Tris pH 8.0, 100 mM NaCl, 100 mM MgCl2, 20 °C; labelled compound (mant-GMPPNP; table heading prints GMPPNP)
Description: as §2

Compound | Kd [1] [µM] | Kd [2] [µM] | Kd [3] [µM] | Kd [4] [µM] | Kd [5] [µM] | Kd [6] [µM] | Kd [7] [µM] | Kd [8] [µM] | Kd [9] [µM]
Nc1nc2c(ncn2[C@@H]2O[C@H](COP(=O)(O)OP(=O)(O)O)[C@@H](O)[C@H]2O)c(=O)[nH]1 [GDP] | 2 ± 0.3 | 33 ± 4 | 11 ± 2 | 9 ± 2 | 8 ± 1 | – | – | – | –
mant-GMPPNP | – | – | – | – | – | 27 | 17 | 43 | 23
